Source: publication PMC4084896 (PLoS ONE, 2014)

Experiments:
[1] = target: T1, aryl hydrocarbon receptor AhR (Homo sapiens, UniProt P35869); experiment: AhR gene reporter assay in AZ-AHR cells, antagonist mode (TCDD 5 nM); format: cell-based; conditions: 24 h, in the presence of TCDD 5 nM
T1 construct: endogenous in cells; host or cells: AZ-AHR (stably transfected reporter line derived from HepG2)
T1 sequence (P35869 11-848): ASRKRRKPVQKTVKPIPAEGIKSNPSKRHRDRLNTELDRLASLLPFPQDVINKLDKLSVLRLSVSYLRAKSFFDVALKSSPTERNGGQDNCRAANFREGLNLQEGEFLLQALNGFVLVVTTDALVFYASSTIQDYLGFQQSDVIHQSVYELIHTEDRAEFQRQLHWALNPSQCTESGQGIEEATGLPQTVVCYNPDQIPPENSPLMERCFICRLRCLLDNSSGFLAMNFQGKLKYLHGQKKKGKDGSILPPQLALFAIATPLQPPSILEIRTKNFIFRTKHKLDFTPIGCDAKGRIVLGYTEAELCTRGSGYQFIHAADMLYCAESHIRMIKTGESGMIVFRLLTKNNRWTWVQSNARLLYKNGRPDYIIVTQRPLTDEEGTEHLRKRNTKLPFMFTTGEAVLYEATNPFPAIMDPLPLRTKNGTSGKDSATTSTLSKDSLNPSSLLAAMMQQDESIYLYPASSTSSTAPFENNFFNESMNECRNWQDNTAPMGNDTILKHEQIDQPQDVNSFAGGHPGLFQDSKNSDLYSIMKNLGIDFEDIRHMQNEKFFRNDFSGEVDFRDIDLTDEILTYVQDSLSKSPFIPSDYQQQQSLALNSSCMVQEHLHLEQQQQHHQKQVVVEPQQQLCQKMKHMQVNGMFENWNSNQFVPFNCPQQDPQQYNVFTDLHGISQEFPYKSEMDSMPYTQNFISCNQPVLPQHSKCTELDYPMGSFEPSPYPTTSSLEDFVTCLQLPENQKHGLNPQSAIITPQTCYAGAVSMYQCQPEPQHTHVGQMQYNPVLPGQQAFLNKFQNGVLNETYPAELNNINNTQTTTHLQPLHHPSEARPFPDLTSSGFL
Excerpt: (§1) A stably transfected gene reporter cell line AZ-AHR, derived from human hepatoma HepG2 cells transfected with a construct containing several AhR binding sites upstream of a luciferase reporter gene, was used for assessment of AhR transcriptional activity. A stably transfected gene reporter cell line AZ-GR, derived from human cervix carcinoma HeLa cells transfected with a construct containing several GR response elements upstream of a luciferase reporter gene, was used for assessment of GR transcriptional activity. Cells were incubated for 24 h with tested compounds and/or vehicle (DMSO; 0.1% v/v), in the presence or absence of TCDD (5 nM; AZ-AHR cells) or DEX (100 nM; AZ-GR cells). After the treatments, cells were lysed and luciferase activity was measured. In parallel, cell viability was determined by conventional MTT test.
Gene reporter assays were performed in two different experimental layouts. In agonist mode, cells were treated with increasing concentrations of tested compounds, and the half-maximal effective concentrations (EC50) were calculated.

[2] = target: T2, glucocorticoid receptor (GR) (Homo sapiens, UniProt P04150); experiment: GR gene reporter assay in AZ-GR cells, agonist mode; format: cell-based; conditions: up to / at 100 µM, 24 h
T2 sequence (P04150 1-777): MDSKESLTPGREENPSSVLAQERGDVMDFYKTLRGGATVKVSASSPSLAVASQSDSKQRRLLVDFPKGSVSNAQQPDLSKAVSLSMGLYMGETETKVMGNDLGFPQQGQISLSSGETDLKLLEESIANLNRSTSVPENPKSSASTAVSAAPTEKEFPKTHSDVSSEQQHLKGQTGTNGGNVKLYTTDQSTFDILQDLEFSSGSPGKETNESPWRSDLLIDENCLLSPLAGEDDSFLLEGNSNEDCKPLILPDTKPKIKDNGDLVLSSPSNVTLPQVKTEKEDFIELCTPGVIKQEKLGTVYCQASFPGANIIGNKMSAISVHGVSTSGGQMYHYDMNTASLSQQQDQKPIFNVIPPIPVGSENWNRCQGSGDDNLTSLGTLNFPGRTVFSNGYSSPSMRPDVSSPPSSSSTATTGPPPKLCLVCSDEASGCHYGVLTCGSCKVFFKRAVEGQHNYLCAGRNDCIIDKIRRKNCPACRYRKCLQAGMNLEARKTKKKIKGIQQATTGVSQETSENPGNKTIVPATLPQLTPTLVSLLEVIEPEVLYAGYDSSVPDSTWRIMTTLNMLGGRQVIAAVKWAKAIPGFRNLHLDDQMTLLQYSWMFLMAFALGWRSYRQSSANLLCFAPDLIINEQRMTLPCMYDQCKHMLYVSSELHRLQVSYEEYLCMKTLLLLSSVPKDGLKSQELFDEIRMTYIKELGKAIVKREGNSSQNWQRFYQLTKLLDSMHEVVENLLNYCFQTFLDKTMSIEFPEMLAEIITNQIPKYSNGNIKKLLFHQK
Excerpt: as §1
(§2) There is multiple evidence for the role of glucocorticoid receptor (GR) in regulation of AhR activity. […] Gene reporter assays were performed in agonist and antagonist mode (similarly as described in section 3.1.).

[3] = target: T2, glucocorticoid receptor (GR); experiment: GR gene reporter assay in AZ-GR cells, antagonist mode (DEX 100 nM); format: cell-based; conditions: 24 h; for IC50: in the presence of DEX 100 nM
Excerpt: as §1, §2

[4] = system: tyrosine aminotransferase (TAT) mRNA; experiment: TAT mRNA in HepG2 cells (qRT-PCR); format: cell-based, human; conditions: HepG2, 1, 30, 50 µM, 24 h

SMILES | IC50 [1] [µM] | increase of luciferase activity, agonist mode [2] | IC50 [3] [µM] | TAT mRNA induction (in words) [4] | inhibition of DEX-induced luciferase activity (in words) ([3]; DEX 100 nM)
CC(=O)N1CCN(c2ccc(OC[C@H]3CO[C@](Cn4ccnc4)(c4ccc(Cl)cc4Cl)O3)cc2)CC1 [(+)-KET, (2R,4S)-(+)-KET] | 22.3 ± 6.3 | did not induce luciferase activity | 29.6 ± 0.9 | strong, concentration-dependent induction | –
CC(=O)N1CCN(c2ccc(OCC3COC(Cn4ccnc4)(c4ccc(Cl)cc4Cl)O3)cc2)CC1 (racemic) [rac-KET, ketoconazole] | 31.1 ± 3.7 | approximately 5 fold | > 100 | strong, concentration-dependent induction | only weak inhibition
